In patent US10463664B2, “Inhibitors of HSV nucleotidyl transferases and uses therefor” (Saint Louis University, priority 2013, dated 2019):

Tests used:
Vero cells = assay: Qualitative (visual) cytotoxicity assessment in primary screening; assay type: cell-based; set-up: key to Vero cell toxicity Qualitative: T: visual evidence of toxicity at 50 μM; details: for Vero cell toxicity Qualitative: visual, 50 μM
Method: Compound Cytotoxicity. Compound cytotoxicity was measured both subjectively and quantitatively. Subjective assessments were done by visually inspecting the infected cells at the end of the 24 hours infection window through a phase-contrast microscope.

HSV-1 [1] = assay: Anti-HSV-1 replication assay in Vero cells, titer by plaque assay; assay type: cell-based, herpes simplex virus 1; details: for Anti-HSV-1 Log10 suppression 5 μM (screening symbol) / Anti-HSV-1 Log10 suppression 50 μM (screening symbol): visual inspection; for Anti-HSV-1 Log10 suppression 5 μM / Anti-HSV-1 Log10 suppression 50 μM: moi 0.1, 24 h, relative to DMSO; for Inhibition of HSV-1 replication (in words): primary screening
Method: (§1) Anti-HSV-1 and -HSV-2 Replication Assay. Compounds to be screened were diluted in PBS supplemented to contain 2% newborn calf serum and 1% glutamine, and added in 100 μL, volume to confluent cell monolayers in 24-well cluster plates. Immediately thereafter HSV-1 and HSV-2, diluted in the supplemented PBS medium, were added to the wells in 50 μl volume such that the final concentration of compound was 50 μM and 5 μM and the multiplicity of infection was 0.1. The plates were incubated at 37° C. for 1 hour and then virus-containing inoculum was removed and the wells were washed once in PBS. Compounds, diluted to 50 μM and 5 μM in DMEM supplemented to contain 2% newborn calf serum and 1% each penicillin/streptomycin, were added at 0.5 mL/well. Plates were incubated at 37° C. an additional 23 hr, and then the plates were visually inspected through a phase contrast microscope for cytopathic effect, and for toxic effect. […] The entire contents of each well were collected by scraping. Samples were frozen at −80° C., and then subsequently thawed, sonicated, and infectious virus titer was determined by standard plaque assay on Vero cell monolayers. Because the compounds were dissolved at 10 mM in 100% DMSO, equivalent dilutions of DMSO were added to additional wells as a control for effects of the diluent. Each experiment was repeated once. EC50 values were determined as above except that serial dilutions of the compound to be tested were prepared starting at 50 μM. The inhibitory values were calculated by non-linear curve-fitting in GraphPad Prism.
(§2) Monolayers were microscopically inspected 24 hours post-infection and wells in which more cells were visually healthier than the DMSO-treated controls were collected. Viral titers in the culture lysates were then determined by standard plaque assay on Vero cells. Inhibition of viral replication was categorized as <1 log10 relative to the DMSO-treated control, 1 to 3 log10 suppression, or ≥3 log10 suppression. […] Additionally, four polyoxygenated heterocycle compounds were tested (#128, 138, 139, 140).

HBV RNaseH = target: T1, HBV RNaseH (Hepatitis B virus genotype A2 subtype adw2, UniProt P03159); assay: Biochemical inhibition of HBV RNaseH (oligonucleotide-directed RNA cleavage assay); details: compounds at 60, 20 or 10 μM
T1 construct: One of the inventors recently produced active recombinant HBV RNase H; hexahistidine; made in house; host or cells: E. coli
T1 sequence (P03159 693-845): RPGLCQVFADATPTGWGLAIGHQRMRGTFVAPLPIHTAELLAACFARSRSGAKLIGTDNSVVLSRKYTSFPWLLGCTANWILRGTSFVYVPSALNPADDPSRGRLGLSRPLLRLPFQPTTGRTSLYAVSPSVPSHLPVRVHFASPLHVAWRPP
Method: (§3) Biochemical inhibition of HBV RNaseH and human RNaseH1 activity. […] RNaseH activity was measured using an oligonucleotide-directed RNA cleavage assay in which a DNA oligonucleotide is annealed to an internally ^32P-labeled RNA, the RNA:DNA heteroduplex is incubated with the enzyme to permit cleavage, and then the RNA cleavage products are resolved by electrophoresis and detected by autoradiography. The compounds were included in the reaction mixes at 60, 20, or 10 μM and the amount of the RNA cleavage products in the compound-containing reactions was compared to reactions in which an equivalent concentration of DMSO was added as a vehicle control. The data were quantified using ImageJ.

human RNaseH1 = target: T2, human RNaseH1 (Homo sapiens, UniProt O60930); assay: Biochemical inhibition of human RNaseH1 (oligonucleotide-directed RNA cleavage assay); details: compounds at 60, 20 or 10 μM
T2 construct: hexahistidine; made in house; host or cells: E. coli
T2 sequence (O60930 1-286): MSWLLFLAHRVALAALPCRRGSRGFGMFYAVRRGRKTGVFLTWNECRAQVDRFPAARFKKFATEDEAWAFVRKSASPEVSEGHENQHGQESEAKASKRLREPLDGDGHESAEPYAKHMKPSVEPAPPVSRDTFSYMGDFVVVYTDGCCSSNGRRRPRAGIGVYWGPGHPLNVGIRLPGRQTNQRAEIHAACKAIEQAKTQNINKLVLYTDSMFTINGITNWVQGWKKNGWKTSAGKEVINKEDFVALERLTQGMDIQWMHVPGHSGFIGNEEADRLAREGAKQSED
Method: as §3

HSV-2 [2] = assay: Anti-HSV-2 replication assay in Vero cells, titer by plaque assay; assay type: cell-based, herpes simplex virus 2; details: for Anti-HSV-2 Log10 suppression 5 μM (screening symbol) / Anti-HSV-2 Log10 suppression 50 μM (screening symbol): visual inspection; for Anti-HSV-2 Log10 suppression 5 μM / Anti-HSV-2 Log10 suppression 50 μM: moi 0.1, 24 h, relative to DMSO; for Inhibition of HSV-2 replication (in words): primary screening
Method: as §1, §2

[3] = test system: primary human foreskin fibroblasts; assay: in vitro
Method: Toxicity Assays. Qualitative assessments of cytotoxicity were done visually by inspecting the cells in the primary screening assays. For the quantitative assays, cells were plated in 96-well plates at 1.0×10^4 per well. The next day the compounds were added at 0.78 to 100 μM in a final concentration of 1% (v/v) DMSO, and the cells were incubated for 24 hours under conditions identical to those employed for the viral replication inhibition assays. Mitochondrial toxicity was measured by incubating the cells with 0.25 mg/mL thiazolyl blue tetrazolium bromide (MTT, SigmaAldrich Chemical Co.), the cultures were incubated for 60 min, metabolites were solubilized in acidic isopropanol, and absorbance was read at 570 nm. Cellular lysis was measured by detecting release of intracellular proteases with the CytoTox-Glo assay (Promega) according to the manufacturer's instructions. Percent viability was determined for each compound concentration from the maximal absorbance or luminosity data, and then CC50 values were calculated by non-linear curve fitting using GraphPad Prism.
(§4) Inhibition of viral replication was next assessed in human foreskin fibroblasts (HFF) to determine whether NTS inhibitors could block HSV-1 and HSV-2 replication in a physiologically relevant, primary human cell type. […] Viral yields 24 hours post-infection were measured by plaque assay.

HSV-1 [4] = assay: HSV-1 replication inhibition in primary human foreskin fibroblasts; assay type: cell-based, herpes simplex virus 1; set-up: key to Replication inhibition HSV-1 50 μM (not quantified): NQ: Not quantified due to visible toxicity; details: HFF cells
Method: as §1, §4

HSV-2 [5] = assay: HSV-2 replication inhibition in primary human foreskin fibroblasts; assay type: cell-based, herpes simplex virus 2; set-up: key to Replication inhibition HSV-2 50 μM (not quantified): NQ: Not quantified due to visible toxicity; details: HFF cells
Method: as §1, §4

[6] = relative to DMSO-treated control
[7] = 50 μM, relative to DMSO-treated control

Structure (SMILES) | Vero cell toxicity Qualitative (Vero cells) | Anti-HBV RNaseH (HBV RNaseH) | Anti-Human RNaseH1 (human RNaseH1) | Anti-HSV-2 Log10 suppression 50 μM (screening symbol) (HSV-2 [2]) | Anti-HSV-1 Log10 suppression 5 μM (HSV-1 [1]) [log10] | Inhibition of HSV-1 replication (in words) (HSV-1 [1]) | CC50 [3] [µM] | Replication inhibition HSV-1 5 μM (HSV-1 [4]; [6]) [log10] | Replication inhibition HSV-2 5 μM (HSV-2 [5]; [6]) [log10] | Anti-HSV-2 Log10 suppression 5 μM (HSV-2 [2]) [log10] | Inhibition of HSV-2 replication (in words) (HSV-2 [2]) | Replication inhibition HSV-1 50 μM (not quantified) (HSV-1 [4]; 50 μM) | Replication inhibition HSV-2 50 μM (not quantified) (HSV-2 [5]; 50 μM) | also measured
COc1cc2c(cc1Cc1cccc(Cl)c1F)c(=O)c(C(=O)O)cn2[C@H](CO)C(C)C [Compound 10, Elvitegravir, reference compound] | T | − (no inhibition at 60 μM) | − (no inhibition at 60 μM) | − |  |  |  |  |  |  |  |  |  | Anti-HSV-1 Log10 suppression 5 μM (screening symbol) (HSV-1 [1]): −; Anti-HSV-1 Log10 suppression 50 μM (screening symbol) (HSV-1 [1]): −; Anti-HSV-2 Log10 suppression 5 μM (screening symbol) (HSV-2 [2]): −
CCOC(=O)c1sc(NC(=O)CSc2nccc(C)n2)c(C#N)c1C [Compound 27] | T | − (no inhibition at 60 μM) |  | − |  |  |  |  |  |  |  |  |  | Anti-HSV-1 Log10 suppression 5 μM (screening symbol) (HSV-1 [1]): −; Anti-HSV-1 Log10 suppression 50 μM (screening symbol) (HSV-1 [1]): −; Anti-HSV-2 Log10 suppression 5 μM (screening symbol) (HSV-2 [2]): −
CC(C)c1ccc(O)c(=O)cc1 [Compound 48, Gamma-thujaplicin] |  | − (no inhibition at 60 μM) | − (no inhibition at 60 μM) |  | 0.31 | negligible inhibitors | > 100 | 0.05 | 0.20 | 0.20 | negligible inhibitors |  |  | Anti-HSV-1 Log10 suppression 50 μM (HSV-1 [1]): 4.71 log10; Replication inhibition HSV-1 50 μM (HSV-1 [4]; [7]): 5.99 log10; Replication inhibition HSV-2 50 μM (HSV-2 [5]; [7]): 5.76 log10; Anti-HSV-2 Log10 suppression 50 μM (HSV-2 [2]): 4.57 log10
O=Nc1ccc(O)c(=O)cc1 [Compound 50, 5-nitrosotropolone] | T | − (no inhibition at 60 μM) | − (no inhibition at 60 μM) | + |  |  | 40.4 | 2.92 | 2.88 |  |  | NQ^4 | NQ | Toxicity in HFF cells (in words) [3]: some toxicity
O=C(Nc1ccc(O)c(=O)cc1)c1ccccc1 [Compound 52] |  | − (no inhibition at 60 μM) | − (no inhibition at 60 μM) |  | 0.07 | negligible inhibitors | > 100 | 0.10 | −0.01 | 0.10 | negligible inhibitors | NQ | NQ | Anti-HSV-1 Log10 suppression 50 μM (HSV-1 [1]): 2.02 log10; Anti-HSV-2 Log10 suppression 50 μM (HSV-2 [2]): 1.34 log10
Cc1ccc(S(=O)(=O)Oc2cccccc2=O)cc1 [Compound 61] | T | − (no inhibition at 60 μM) | ++ (inhibition at 20 μM) | − | 0.15 | negligible inhibitors | 27.8 | −0.17 | −0.05 | 0.23 | negligible inhibitors | NQ | NQ | Toxicity in HFF cells (in words) [3]: some toxicity
O=c1cc(NCc2ccccc2)c2cccnc2n1O [Compound 151] | T |  |  |  | 2.16 |  |  |  |  | 2.26 |  |  |  | Cytotoxicity at 50 μM (in words) (Vero cells): significant cytotoxicity; Anti-HSV-1 Log10 suppression 5 μM (HSV-1 [1]; listed as #151): > 2.15 log10; Anti-HSV-2 Log10 suppression 5 μM (HSV-2 [2]; listed as #151): > 2.15 log10
O=c1cc(NC2CCc3ccccc32)c2cccnc2n1O (stereo not drawn) [Compound 155] | T |  |  |  | 3.85 |  |  |  |  | 3.88 |  |  |  | Cytotoxicity at 50 μM (in words) (Vero cells): significant cytotoxicity; Anti-HSV-1 Log10 suppression 5 μM (HSV-1 [1]; listed as #155): > 3.84 log10; Anti-HSV-2 Log10 suppression 5 μM (HSV-2 [2]; listed as #155): > 3.84 log10
